Laboratory results reported in US10745401B2, “Condensed lactam derivative” (Sumitomo Dainippon Pharma Co., Ltd., priority 2018, dated 2020).

What was measured:
hERG channel = hERG channel (Homo sapiens (Human), UniProt Q12809); test: Test 6-1: inhibitory activity for hERG channel (auto patch clamp, Qpatch); type: cell-based; details: whole cell auto patch clamp, hERG-CHO cells; read-out: hERG inhibition IC50
Method: Test 6-1: Evaluation of Inhibitory Activity for hERG Channel
Inhibitory activity of the present compound for hERG channel was measured by whole cell patch clamp method with an auto patch clamp system using CHO cells in which hERG channel involved in human rapidly activating delayed rectifier potassium current (IKr) was forcibly expressed.
hERG-CHO cells purchased from ChanTest Cop. were cultured in a CO2 incubator at 37° C., and dissociated from a flask with trypsin shortly before the measurement of hERG current, to prepare a cell suspension.
Extracellular fluid: 2 mmol/L CaCl2, 1 mmol/L MgCl2, 10 mmol/L HEPES, 4 mmol/L KCl, 145 mmol/L NaCl, 10 mmol/L Glucose
Intracellular fluid: 5.4 mmol/L CaCl2, 1.8 mmol/L MgCl2, 10 mmol/L HEPES, 31 mmol/L KOH, 10 mmol/L EGTA, 120 mmol/L KCl, 4 mmol/L Na2-ATP
Test compound solution: Test compound was dissolved in DMSO to reach the concentration of 2 mmol/L or 20 mmol/L, in order to prepare a test compound solution. […] (Measurement of Current Value and Data Analysis)
The cell suspension, the extracellular fluid, the intracellular fluid, and the measurement plate were set in the auto patch clamp system, and hERG current was measured by whole cell patch clamp method. […] Each pulse interval was 15 seconds. The data analysis was carried out with Qpatch Assay Software (Biolin Scientific). The test was carried out by applying incrementally 4 concentrations of each test compound, and the average of the maximum peak tail currents which were obtained from the last 3 stimulations in each concentration was determined as the evaluated data. Based on the current inhibition rate for a pre-applied current at each concentration of each test compound, IC50 value was calculated by Hill equation with the software.

human 5-HT1A receptor [1] = target: T1, human 5-HT1A receptor (Homo sapiens (Human), UniProt P08908); test: Test 2: agonist activity for human 5-HT1A receptor ([35S]GTPγS binding); type: biochemical; details: for Emax at 10 µM: agonist activity in the presence of 10 μM of compound, relative to 100 μmol/L 5-HT; for EC50: [35S]GTPγS binding, concentration at which half the activity of Emax was obtained
T1 sequence (P08908 whole entry): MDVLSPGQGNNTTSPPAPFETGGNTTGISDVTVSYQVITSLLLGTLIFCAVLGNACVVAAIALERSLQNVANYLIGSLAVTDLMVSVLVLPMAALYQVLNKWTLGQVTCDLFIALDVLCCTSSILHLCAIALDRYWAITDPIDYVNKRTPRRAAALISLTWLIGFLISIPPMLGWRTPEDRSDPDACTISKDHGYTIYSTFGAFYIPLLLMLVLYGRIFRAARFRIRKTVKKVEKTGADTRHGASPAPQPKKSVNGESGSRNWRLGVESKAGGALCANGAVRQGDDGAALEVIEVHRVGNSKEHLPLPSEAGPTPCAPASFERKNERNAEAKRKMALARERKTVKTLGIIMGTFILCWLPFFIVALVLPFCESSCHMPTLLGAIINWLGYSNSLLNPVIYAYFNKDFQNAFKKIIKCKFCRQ
Method: Test 2: Evaluation of Agonist Activity for Human 5-HT1A Receptor
CHO cell membrane fraction in which human 5-HT1A receptor was expressed as used in Test 1 was purchased. To a buffer containing guanosine diphosphate were added a test compound dissolved in DMSO, each receptor membrane sample diluted with buffer, and [^35S] Guanosine 5′-O-[gamma-thio]triphosphate (GTPγS). The mixture was incubated at room temperature for 60 minutes. Then, the mixture was added quickly on a glassfiber filter plate (Multiscreen FB, Millipore, Inc.), and vacuum-filtered. Radioactivity remaining on the […] was measured with a liquid scintillation counter. Agonist activity was calculated from the following formula.

[2] = Test 4: metabolic stability test in human hepatic microsome; type: in vitro ADME; details: 0.1 mg/mL microsome, 0.1 μmol/L compound, 37° C., 30 minutes
Method: Test 4: Metabolic Stability Test in Human Hepatic Microsome
The stability of the present compound in human hepatic microsome metabolism was evaluated as mentioned below. Human hepatic microsome was obtained from Xenontech. Human hepatic microsome, NADPH, and each test compound were mixed in 25 mmol/L phosphate buffer solution (pH 7.4) to reach the following concentrations as shown below, and the mixture was incubated at 37° C. for 30 minutes. • Human hepatic microsome: 0.1 mg/mL • NAPDH: 3.2 mmol/L • Test compound: 0.1 μmol/L
The residual ratio of the test compound in each sample after 30 minutes was measured by LC-MS, and the metabolic stability in human hepatic microsome was calculated from the following formula. Metabolic stability in human hepatic microsome (mL/min/mg protein)=−LN (residual ratio)/30/0.1

human D2 receptor = human D2 receptor (Homo sapiens (Human), UniProt P14416); test: Test 1: binding activity for human D2 receptor ([3H]Spiperone, CHO cell membrane fraction); details: human D2 receptor, [3H]Spiperone
Sequence of human D2 receptor (P14416 whole entry): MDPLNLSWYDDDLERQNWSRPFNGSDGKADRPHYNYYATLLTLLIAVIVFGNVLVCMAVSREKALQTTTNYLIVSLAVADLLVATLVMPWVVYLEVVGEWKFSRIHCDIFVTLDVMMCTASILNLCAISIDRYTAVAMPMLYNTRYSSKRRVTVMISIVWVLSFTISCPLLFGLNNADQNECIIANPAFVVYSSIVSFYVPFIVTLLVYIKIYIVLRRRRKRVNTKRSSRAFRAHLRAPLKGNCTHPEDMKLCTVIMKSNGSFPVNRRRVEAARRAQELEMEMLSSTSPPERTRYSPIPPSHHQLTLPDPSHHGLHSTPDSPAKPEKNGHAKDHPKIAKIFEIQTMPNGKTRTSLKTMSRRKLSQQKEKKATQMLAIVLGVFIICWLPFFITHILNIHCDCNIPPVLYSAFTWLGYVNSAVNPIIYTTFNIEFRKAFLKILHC
Method: (§1) Test 1: Evaluation of Binding Activity for Human 5-HT1A Receptor, Human 5-HT2A Receptor, and Human D2 Receptor
(§2) Binding affinity of the present compound for human 5-HT1A receptor, human 5-HT2A receptor, and human D2 receptor was measured by the following procedures.
(§3) Each mixture was incubated at room temperature for 60 minutes. Then, the mixture was added quickly on a glassfiber filter plate (Multiscreen FB, Millipore, Inc.) coated with 0.3% aqueous polyethylenimine, and vacuum-filtered. Radioactivity remaining on the filter was measured with a liquid scintillation counter (PerkinElmer, Inc.). Binding inhibition rate was calculated from the following formula.
(§4) Ki of each compound was calculated from the following formula. Binding inhibition constant (Ki)=IC50/(1+S/Kd) wherein S is concentration of ligand; Kd is a binding dissociation constant of ligand to membrane, which is calculated from a saturated binding experiment conducted with the same cell membrane. A small Ki value means strong binding ability to a receptor.

human 5-HT1A receptor [3] = target: T1, human 5-HT1A receptor; test: Test 1: binding activity for human 5-HT1A receptor ([3H]8-OH-DPAT, CHO cell membrane fraction)
Method: as §1, §2, §3
as §4, with “IC50 value was calculated by Hill analysis (Physiology, 1910, 40, 190-200). Ki of” for “Ki of”

Sequence of hERG channel (Q12809 whole entry): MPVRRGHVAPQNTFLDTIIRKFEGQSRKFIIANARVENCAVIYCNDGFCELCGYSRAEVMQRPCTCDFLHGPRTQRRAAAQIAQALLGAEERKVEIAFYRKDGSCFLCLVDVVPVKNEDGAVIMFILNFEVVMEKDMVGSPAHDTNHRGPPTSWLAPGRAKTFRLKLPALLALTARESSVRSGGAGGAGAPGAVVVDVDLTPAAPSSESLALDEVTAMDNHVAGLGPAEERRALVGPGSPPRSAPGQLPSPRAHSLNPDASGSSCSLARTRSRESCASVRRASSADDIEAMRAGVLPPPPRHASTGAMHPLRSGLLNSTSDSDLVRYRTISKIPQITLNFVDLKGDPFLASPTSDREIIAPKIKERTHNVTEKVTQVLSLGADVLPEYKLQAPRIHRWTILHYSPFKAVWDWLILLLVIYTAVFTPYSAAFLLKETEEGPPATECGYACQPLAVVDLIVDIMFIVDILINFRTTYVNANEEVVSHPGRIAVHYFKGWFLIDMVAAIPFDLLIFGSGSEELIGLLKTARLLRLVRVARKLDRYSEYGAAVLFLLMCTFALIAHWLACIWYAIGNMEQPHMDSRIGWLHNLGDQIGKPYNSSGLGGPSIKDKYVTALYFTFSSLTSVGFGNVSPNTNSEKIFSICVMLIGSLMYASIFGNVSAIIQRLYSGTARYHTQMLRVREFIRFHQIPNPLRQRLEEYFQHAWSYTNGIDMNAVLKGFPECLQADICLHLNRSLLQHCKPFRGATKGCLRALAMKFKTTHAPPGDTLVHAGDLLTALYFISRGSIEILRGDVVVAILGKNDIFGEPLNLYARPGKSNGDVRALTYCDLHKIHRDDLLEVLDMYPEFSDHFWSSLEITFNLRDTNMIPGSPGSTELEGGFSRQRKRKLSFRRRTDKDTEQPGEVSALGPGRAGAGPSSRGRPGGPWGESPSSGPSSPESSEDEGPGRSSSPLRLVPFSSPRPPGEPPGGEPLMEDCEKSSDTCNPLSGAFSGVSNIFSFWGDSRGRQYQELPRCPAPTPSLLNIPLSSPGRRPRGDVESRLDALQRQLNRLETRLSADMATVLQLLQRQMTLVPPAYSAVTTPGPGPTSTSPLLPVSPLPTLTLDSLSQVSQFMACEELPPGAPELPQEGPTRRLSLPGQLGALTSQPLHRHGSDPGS

Structure (SMILES) | Emax at 10 µM (human 5-HT1A receptor [1]) [%] | Metabolic stability in human hepatic microsome [2] [mL/min/mg protein] | Ki (human D2 receptor) [nM] | EC50 (human 5-HT1A receptor [1]) [nM] | Ki (human 5-HT1A receptor [3]) [nM] | IC50 (hERG channel) [nM]
O=c1c2ncccc2ccn1CCN1CCN(c2nsc3ccccc23)CC1 [Example 8] | 50 | 0.064 | – | – | – | 2000
Cn1cc2c(n1)CCN(CCN1CCC(c3noc4ccccc34)CC1)C2=O [Example 17] | 52 | <0.01 | 689 | – | – | 1000
Cn1cc2c(n1)C(=O)N(CCN1CCC(c3noc4ccccc34)CC1)CCC2 [Example 48] | 37 | <0.01 | 574 | – | – | 1200
O=C1c2oc(C3CC3)nc2CCN1CCN1CCC(c2noc3ccccc23)CC1 [Example 68] | 38 | 0.056 | 853 | – | – | < 270
Cn1nc(Br)c2c1CCN(CCN1CCC(c3noc4ccccc34)CC1)C2=O [Example 70] | 50 | – | 867 | 79.3 | 14.1 | –
CCc1nc2c(o1)C(=O)N(CCN1CCN(c3nsc4ccccc34)CC1)CC2 [Example 71] | 67 | – | 305 | 7.34 | 2.64 | –
Cn1nc2c(c1Br)C(=O)N(CCN1CCN(c3nsc4ccccc34)CC1)CC2 [Example 73] | – | – | 234 | – | 0.97 | –
Cn1nc2c(c1Br)C(=O)N(CCN1CCC(c3noc4ccccc34)CC1)CC2 [Example 74] | 51 | – | 210 | 4.42 | 3.48 | –
O=c1c2cnc(C(F)(F)F)cc2ccn1CCN1CCC(c2noc3ccccc23)CC1 [Example 84] | 59 | – | 954 | – | – | –
Cc1cc2c(cn1)C(=O)N(CCN1CCN(c3noc4ccccc34)CC1)CC2(C)C [Example 86] | 51 | – | 1210 | 16 | 9.9 | –
Cc1ncc2c(=O)n(CCN3CCN(c4nsc5ccccc45)CC3)ccc2n1 [Example 95] | 62 | 0.143 | 2580 | 77.9 | 7.91 | –
O=C1c2[nH]cnc2CCCN1CCN1CCN(c2nsc3ccccc23)CC1 [Example 100, 5-{2-[4-(1,2-Benzoisothiazol-3-yl)piperazin-1-yl]ethyl}-5,6,7,8-tetrahydroimidazo[4,5-c]azepin-4(3H)-one] | 58 | – | 6940 | 86.5 | 6.35 | –
Cn1ccc2c1CCCN(CCN1CCN(c3noc4ccccc34)CC1)C2=O [Example 109, 5-{2-[4-(1,2-Benzoisoxazol-3-yl)piperazin-1-yl]ethyl}-1-methyl-5,6,7,8-tetrahydropyrrolo[3,2-c]azepin-4 (H)-one] | 60 | <0.01 | 601 | – | – | 11300
Cc1ccc2c(n1)C(=O)N(CCN1CCC(c3noc4ccccc34)CC1)CC2 [Example 186] | – | 0.095 | – | – | – | –
Cc1ccc2c(n1)C(=O)N(CCN1CCC(c3noc4ccccc34)CC1)CC2 [Example 187] | – | <0.05 | – | – | – | –
Cc1ncc2c(=O)n(CCN3CCC(c4noc5ccccc45)CC3)ccc2n1 [Example 194, 6-{2-[4-(1,2-Benzoisoxazol-3-yl)piperidin-1-yl]ethyl}-2-methylpyrido[4,3-d]pyrimidin-5(6H)-one] | – | <0.05 | – | – | – | 4900

Now from value to compound, other results behind:

Emax at 10 µM (human 5-HT1A receptor [1]) [%] | Metabolic stability in human hepatic microsome [2] [mL/min/mg protein] | Ki (human D2 receptor) [nM] | EC50 (human 5-HT1A receptor [1]) [nM] | Ki (human 5-HT1A receptor [3]) [nM] | Structure (SMILES) | IC50 (hERG channel) [nM]
5 | – | 276 | 550 | 73.1 | Cc1ccc2c(C3CCN(CCN4CCc5cccnc5C4=O)CC3)noc2c1 [Example 118] | –
35 | – | 105 | 63.9 | 3.9 | CC1(C)CN(CCN2CCC(c3noc4cc(F)ccc34)CC2)C(=O)c2ncccc21 [Example 119] | –
23 | <0.05 | 537 | 121 | 24 | CC(CN1CCC(c2noc3cc(F)ccc23)CC1)N1CCc2cccnc2C1=O (stereo not shown) [Example 122] | –
33 | <0.05 | 625 | 35.9 | 83.2 | O=C1c2cccnc2CCN1CCN1CCC(c2noc3ccccc23)CC1 [Example 128] | –
31 | – | 402 | 1040 | 26.5 | O=C1c2ncccc2CCC1CCN1CCN(c2noc3cc(F)ccc23)CC1 (stereo not shown) [Example 143] | 800
53 | <0.05 | > 10000 | – | – | O=C1c2nc(Cl)ccc2CCN1CCN1CCN(c2noc3ccccc23)CC1 [Example 144] | –
16 | <0.05 | – | – | – | O=C1c2cccnc2CCN1CCN1CCN(c2noc3ccccc23)CC1 [Example 153, 6-{2-[4-(1,2-Benzoisoxazol-3-yl)piperazin-1-yl]ethyl}-7,8-dihydro-1,6-naphthyridin-5(6H)-one] | 7100
12 | 0.113 | 327 | 921 | 217 | CC(C)n1ncc2c1CCN(CCN1CCN(c3nsc4ccccc34)CC1)C2=O [Example 158] | –
18 | <0.05 | 373 | 854 | 255 | CC(C)n1ncc2c1CCN(CCN1CCC(c3noc4ccccc34)CC1)C2=O [Example 159] | –
43 | 0.13 | 170 | 844 | 20.2 | O=C1c2cnn(C3CC3)c2CCN1CCN1CCN(c2nsc3ccccc23)CC1 [Example 160] | –
17 | <0.05 | 216 | 6180 | 203 | O=C1c2cnn(C3CC3)c2CCN1CCN1CCC(c2noc3ccccc23)CC1 [Example 161] | –
44 | – | 1920 | 62.9 | 44.2 | O=C1c2cn[nH]c2CCN1CCN1CCN(c2nsc3ccccc23)CC1 [Example 169] | –
72 | – | 384 | 8.2 | 3.33 | O=c1c2cnc(C(F)(F)F)cc2ccn1CCN1CCN(c2nsc3ccccc23)CC1 [Example 172] | –
